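Values below derive from 48-hour exposures of cells grown in 96-well plates, with endpoints linearly interpolated between the two concentrations bracketing the appropriate inhibition level. Here, GI50 denotes the concentration required for 50% inhibition of growth. TGI is the concentration that stops growth completely.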
Assays:
Experiment in all cases: inhibition of tumour cell growth, NCI panel, 48 h
SK-OV-3 ovarian = test system: SK-OV-3 ovarian
K-562 leukemia = test system: K-562 leukemia
UACC-257 melanoma = test system: UACC-257 melanoma
DU-145 prostate = test system: DU-145 prostate
HT29 colon = test system: HT29 colon
SN12C renal = test system: SN12C renal
A549 NSCLC = test system: A549 NSCLC
CCRF-CEM leukemia = test system: CCRF-CEM leukemia
NCI-H460 lung = test system: NCI-H460 lung
HCT-116 colon = test system: HCT-116 colon
EKVX NSCLC = test system: EKVX NSCLC
MOLT-4 leukemia = test system: MOLT-4 leukemia
OVCAR-4 ovarian = test system: OVCAR-4 ovarian
HOP-92 NSCLC = test system: HOP-92 NSCLC
HCC-2998 colon = test system: HCC-2998 colon
OVCAR-3 ovarian = test system: OVCAR-3 ovarian
M14 melanoma = test system: M14 melanoma
CAKI-1 renal = test system: CAKI-1 renal
SF-268 CNS = test system: SF-268 CNS
OVCAR-8 ovarian = test system: OVCAR-8 ovarian
PC-3 prostate = test system: PC-3 prostate
SF-295 CNS = test system: SF-295 CNS
NCI/ADR-RES ovarian = test system: NCI/ADR-RES ovarian
SNB-19 CNS = test system: SNB-19 CNS
HCT-15 colon = test system: HCT-15 colon
LOX IMVI melanoma = test system: LOX IMVI melanoma
HS 578T breast = test system: HS 578T breast
TK-10 renal = test system: TK-10 renal
IGROV1 ovarian = test system: IGROV1 ovarian
SK-MEL-28 melanoma = test system: SK-MEL-28 melanoma
COLO 205 colon = test system: COLO 205 colon
OVCAR-5 ovarian = test system: OVCAR-5 ovarian
HOP-62 NSCLC = test system: HOP-62 NSCLC
T-47D breast = test system: T-47D breast
SR leukemia = test system: SR leukemia
HL-60(TB) leukemia = test system: HL-60(TB) leukemia
NCI-H23 lung = test system: NCI-H23 lung
NCI-H226 lung = test system: NCI-H226 lung
MDA-MB-231 breast = test system: MDA-MB-231 breast
U251 CNS = test system: U251 CNS
SW-620 colon = test system: SW-620 colon
RPMI-8226 leukemia = test system: RPMI-8226 leukemia
MCF7 breast = test system: MCF7 breast
KM12 colon = test system: KM12 colon
A498 renal = test system: A498 renal
BT-549 breast = test system: BT-549 breast

SMILES: COc1ccc(Nc2ccnc3cc(Cl)ccc23)cc1CN(CCCl)CCCl
- GI50 (SK-OV-3 ovarian): 1.56 µM
- GI50 (K-562 leukemia): 1.53 µM
- TGI (K-562 leukemia): > 22.7 µM
- GI50 (UACC-257 melanoma): 1.98 µM
- TGI (UACC-257 melanoma): 5.96 µM
- GI50 (DU-145 prostate): 0.901 µM
- TGI (DU-145 prostate): 3.54 µM
- GI50 (HT29 colon): 1.62 µM
- TGI (HT29 colon): 6.42 µM
- GI50 (SN12C renal): 1.24 µM
- TGI (SN12C renal): 6 µM
- GI50 (A549 NSCLC): 1.69 µM
- TGI (A549 NSCLC): > 28.5 µM
- GI50 (CCRF-CEM leukemia): 0.664 µM
- GI50 (NCI-H460 lung): 0.532 µM
- TGI (NCI-H460 lung): 2.96 µM
- GI50 (HCT-116 colon): 1.14 µM
- TGI (HCT-116 colon): 3.84 µM
- GI50 (EKVX NSCLC): 1.9 µM
- TGI (EKVX NSCLC): > 21.5 µM
- GI50 (MOLT-4 leukemia): 0.662 µM
- TGI (MOLT-4 leukemia): 2.61 µM
- GI50 (OVCAR-4 ovarian): 1.74 µM
- TGI (OVCAR-4 ovarian): 5.19 µM
- GI50 (HOP-92 NSCLC): 1.17 µM
- TGI (HOP-92 NSCLC): 5.53 µM
- GI50 (HCC-2998 colon): 1.68 µM
- TGI (HCC-2998 colon): 4.54 µM
- GI50 (OVCAR-3 ovarian): 1.95 µM
- TGI (OVCAR-3 ovarian): 6.04 µM
- GI50 (M14 melanoma): 2.14 µM
- TGI (M14 melanoma): 7.92 µM
- GI50 (CAKI-1 renal): 0.262 µM
- TGI (CAKI-1 renal): 0.933 µM
- GI50 (SF-268 CNS): 1.15 µM
- TGI (SF-268 CNS): 4.89 µM
- GI50 (OVCAR-8 ovarian): 2.2 µM
- TGI (OVCAR-8 ovarian): > 100 µM
- GI50 (PC-3 prostate): 2.05 µM
- TGI (PC-3 prostate): > 100 µM
- GI50 (SF-295 CNS): 0.804 µM
- TGI (SF-295 CNS): 3.31 µM
- GI50 (NCI/ADR-RES ovarian): 3.84 µM
- TGI (NCI/ADR-RES ovarian): > 100 µM
- GI50 (SNB-19 CNS): 1.5 µM
- GI50 (HCT-15 colon): 1.85 µM
- TGI (HCT-15 colon): 6.44 µM
- GI50 (LOX IMVI melanoma): 0.724 µM
- TGI (LOX IMVI melanoma): 4.39 µM
- GI50 (HS 578T breast): 3.14 µM
- TGI (HS 578T breast): > 100 µM
- GI50 (TK-10 renal): 2.02 µM
- TGI (TK-10 renal): > 20.7 µM
- GI50 (IGROV1 ovarian): 1.31 µM
- TGI (IGROV1 ovarian): 4.19 µM
- GI50 (SK-MEL-28 melanoma): 3.59 µM
- TGI (SK-MEL-28 melanoma): 14.9 µM
- GI50 (COLO 205 colon): 1.39 µM
- TGI (COLO 205 colon): 3.56 µM
- GI50 (OVCAR-5 ovarian): 2.84 µM
- TGI (OVCAR-5 ovarian): 5.94 µM
- GI50 (HOP-62 NSCLC): 1.37 µM
- TGI (HOP-62 NSCLC): 4.01 µM
- GI50 (T-47D breast): 2.27 µM
- TGI (T-47D breast): > 100 µM
- GI50 (SR leukemia): 0.158 µM
- TGI (SR leukemia): 0.699 µM
- GI50 (HL-60(TB) leukemia): 0.944 µM
- TGI (HL-60(TB) leukemia): 3.96 µM
- GI50 (NCI-H23 lung): 1.04 µM
- TGI (NCI-H23 lung): 3.26 µM
- GI50 (NCI-H226 lung): 1.63 µM
- TGI (NCI-H226 lung): 4.17 µM
- GI50 (MDA-MB-231 breast): 2.45 µM
- TGI (MDA-MB-231 breast): 15.9 µM
- GI50 (U251 CNS): 1.79 µM
- TGI (U251 CNS): > 100 µM
- GI50 (SW-620 colon): 1.59 µM
- TGI (SW-620 colon): 7.38 µM
- GI50 (RPMI-8226 leukemia): 1.15 µM
- TGI (RPMI-8226 leukemia): 4.85 µM
- GI50 (MCF7 breast): 0.633 µM
- TGI (MCF7 breast): 6.42 µM
- GI50 (KM12 colon): 2.21 µM
- TGI (KM12 colon): 9.75 µM
- GI50 (A498 renal): 2.12 µM
- TGI (A498 renal): 6.47 µM
- GI50 (BT-549 breast): 1.78 µM
- TGI (BT-549 breast): 13 µM
